Measured values reported in publication PMC7168207, “Dibasic Derivatives of Phenylcarbamic Acid as Prospective Antibacterial Agents Interacting with Cytoplasmic Membrane” (Antibiotics, 2020).
Values joined by “and” are separate entries in the source; they are usually repeats but may differ in a detail not shown here. Equal values may be shown once. Marks after values point to notes of the source that are not given here.

Assays:
[1] = test system: Candida albicans CCM 8261; assay: minimum fungistatic concentration, RPMI 1640; format: cell-based; conditions: CCM8261, CA = C albicans CCM 8261, 48 h
Method: Fungistatic activity was tested similarly in RPMI (Roswell Park Memorial Institute) 1640 medium (Sigma, Pool, UK). […] A growth control and sterility control were included. The colonies of C. albicans grown overnight on Sabourad dextrose agar were suspended in sterile phosphate-buffered saline (PBS) to get cell density 0.5 McFarland. The inoculum was diluted to get a final concentration of 10^3 CFU/mL in the wells. Plates were inoculated and cultivated at 37 °C for 48 h. The minimum fungistatic concentration was visually evaluated as the lowest concentration of a tested compound, which inhibited 100% of yeast growth. 5-Flucytosin (Sigma, UK) was used as a positive control.

[2] = set-up: method as in PMID 30274224; conditions: methanolic solutions, c = 8.0 × 10^−5 M; cited from earlier work
VRE 342B = assay: time-kill study; format: cell-based, Enterococcus faecalis; conditions: VRE1
From the text: (§1) Time-kill studies are used to evaluate the dynamics of antibacterial activity. As mentioned above, a pre-test to determine minimum bactericidal concentration (MBC) by sub-cultivation of aliquots on agar was made (see Section 3.4). […] Time-kill studies were made with methicillin-susceptible S. aureus ATCC 29213 and methicillin-resistant MRSA 63718, vancomycin-susceptible E. faecalis ATCC 29212, and all three VRE isolates. Vancomycin was used as a control (Table 6).
(§2) The method of time-kill curves was used to study the bactericidal effect of selected compounds. […] The experiment was performed with S. aureus ATCC 29213, MRSA 63718, E. faecalis ATCC 29212, and all VRE isolates. […] The tubes were inoculated by bacterial inoculum in the exponential phase of growth to get a final concentration of 7.5 × 10^6 CFU/mL. The tubes were incubated statically at 37 °C. Immediately after inoculation and after 4, 6, 8, and 24 h, 100 µL of the sample was serially diluted (1:10) in PBS. Then, 2 × 20 µL from each dilution were put onto a Mueller–Hinton agar plate and cultivated at 37 °C for 24 h. After incubation, CFUs of dilutions containing 5–50 colonies were counted. Results were expressed as a decrease of log10(CFU) in each time compared to the starting inoculum. Bactericidal effect is defined as a −3log decrease of CFU/mL compared to the growth control in time 0. The test was made in duplicate on two separate occasions, and the results were averaged. The growth curves with error bars are shown in Figures S1 and S2 in Supplementary Materials.

VRE 725B = assay: time-kill study; format: cell-based, Enterococcus faecalis; conditions: VRE3
From the text: as §1, §2

E. faecalis ATCC 29212 [3] = assay: time-kill study; format: cell-based, Enterococcus faecalis; conditions: EF
From the text: as §1, §2

VRE 368 = assay: time-kill study; format: cell-based, Enterococcus faecalis; conditions: VRE2
From the text: as §1, §2

E. faecalis ATCC 29212 [4] = assay: MIC, broth microdilution; format: cell-based, Enterococcus faecalis; conditions: Enterococcus faecalis, ATCC 29212 / ATCC 29213; EF = E. faecalis ATCC 29213
How it was run: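 Broth microdilution in CaMH (staphylococci) or BHI (enterococci), 5 × 10^5 CFU/mL per well, 37 °C aerobic overnight.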

**Q.** Which results are given for `CCCCCCCOc1cccc(NC(=O)OC(CN(CCC)CCC)CN2CCCC2)c1.Cl.Cl` (stereo not drawn) [1h, 1-[3-(Dipropylammonio)-2-({[3-(heptyloxy)phenyl]carbamoyl}oxy)propyl]pyrrolidinium dichloride]?
**A.** MIC [1]: 8 µg/mL and 15 µM; log ε2 (Ch-T) [2]: 4.27; Log10 Difference in CFU/mL from Inoculum (VRE 342B; 1 × MIC, 4 h): 0.07 log10 CFU/mL; Log10 Difference in CFU/mL from Inoculum (VRE 342B; 1 × MIC, 6 h): 1.08 log10 CFU/mL; Log10 Difference in CFU/mL from Inoculum (VRE 342B; 1 × MIC, 8 h): −0.08 log10 CFU/mL; Log10 Difference in CFU/mL from Inoculum (VRE 342B; 1 × MIC, 24 h): 1.42 log10 CFU/mL; Log10 Difference in CFU/mL from Inoculum (VRE 342B; 2 × MIC, 4 h): 0.09 log10 CFU/mL; Log10 Difference in CFU/mL from Inoculum (VRE 342B; 2 × MIC, 6 h): 0.41 log10 CFU/mL; Log10 Difference in CFU/mL from Inoculum (VRE 342B; 2 × MIC, 8 h): −0.02 log10 CFU/mL; Log10 Difference in CFU/mL from Inoculum (VRE 342B; 2 × MIC, 24 h): 0.47 log10 CFU/mL; Log10 Difference in CFU/mL from Inoculum (VRE 342B; 4 × MIC, 4 h): −0.78 log10 CFU/mL; Log10 Difference in CFU/mL from Inoculum (VRE 342B; 4 × MIC, 6 h): −0.99 log10 CFU/mL; Log10 Difference in CFU/mL from Inoculum (VRE 342B; 4 × MIC, 8 h): −0.66 log10 CFU/mL; Log10 Difference in CFU/mL from Inoculum (VRE 342B; 4 × MIC, 24 h): 0.85 log10 CFU/mL; Log10 Difference in CFU/mL from Inoculum (VRE 725B; 1 × MIC, 4 h): −0.70 log10 CFU/mL; Log10 Difference in CFU/mL from Inoculum (VRE 725B; 1 × MIC, 6 h): 0.08 log10 CFU/mL; Log10 Difference in CFU/mL from Inoculum (VRE 725B; 1 × MIC, 8 h): −0.05 log10 CFU/mL; Log10 Difference in CFU/mL from Inoculum (VRE 725B; 1 × MIC, 24 h): 0.92 log10 CFU/mL; Log10 Difference in CFU/mL from Inoculum (VRE 725B; 2 × MIC, 4 h): −1.81 log10 CFU/mL; Log10 Difference in CFU/mL from Inoculum (VRE 725B; 2 × MIC, 6 h): −1.31 log10 CFU/mL; Log10 Difference in CFU/mL from Inoculum (VRE 725B; 2 × MIC, 8 h): −0.81 log10 CFU/mL; Log10 Difference in CFU/mL from Inoculum (VRE 725B; 2 × MIC, 24 h): 0.95 log10 CFU/mL; Log10 Difference in CFU/mL from Inoculum (VRE 725B; 4 × MIC, 4 h): −1.75 * log10 CFU/mL; Log10 Difference in CFU/mL from Inoculum (VRE 725B; 4 × MIC, 6 h): −0.76 log10 CFU/mL; Log10 Difference in CFU/mL from Inoculum (VRE 725B; 4 × MIC, 8 h): −0.76 log10 CFU/mL; Log10 Difference in CFU/mL from Inoculum (VRE 725B; 4 × MIC, 24 h): 1.08 log10 CFU/mL; Log10 Difference in CFU/mL from Inoculum (E. faecalis ATCC 29212 [3]; 1 × MIC, 4 h): −0.64 log10 CFU/mL; Log10 Difference in CFU/mL from Inoculum (E. faecalis ATCC 29212 [3]; 1 × MIC, 6 h): 0.16 log10 CFU/mL; Log10 Difference in CFU/mL from Inoculum (E. faecalis ATCC 29212 [3]; 1 × MIC, 8 h): 0.24 log10 CFU/mL; Log10 Difference in CFU/mL from Inoculum (E. faecalis ATCC 29212 [3]; 1 × MIC, 24 h): 0.34 log10 CFU/mL; Log10 Difference in CFU/mL from Inoculum (E. faecalis ATCC 29212 [3]; 2 × MIC, 4 h): −1.87 log10 CFU/mL; Log10 Difference in CFU/mL from Inoculum (E. faecalis ATCC 29212 [3]; 2 × MIC, 6 h): −1.36 log10 CFU/mL; Log10 Difference in CFU/mL from Inoculum (E. faecalis ATCC 29212 [3]; 2 × MIC, 8 h): −0.86 log10 CFU/mL; Log10 Difference in CFU/mL from Inoculum (E. faecalis ATCC 29212 [3]; 2 × MIC, 24 h): 0.42 log10 CFU/mL; Log10 Difference in CFU/mL from Inoculum (E. faecalis ATCC 29212 [3]; 4 × MIC, 4 h): −2.57 * log10 CFU/mL; Log10 Difference in CFU/mL from Inoculum (E. faecalis ATCC 29212 [3]; 4 × MIC, 6 h): −2.23 * log10 CFU/mL; Log10 Difference in CFU/mL from Inoculum (E. faecalis ATCC 29212 [3]; 4 × MIC, 8 h): −1.62 log10 CFU/mL; Log10 Difference in CFU/mL from Inoculum (E. faecalis ATCC 29212 [3]; 4 × MIC, 24 h): 0.49 log10 CFU/mL; Log10 Difference in CFU/mL from Inoculum (VRE 368; 1 × MIC, 4 h): 0.46 log10 CFU/mL; Log10 Difference in CFU/mL from Inoculum (VRE 368; 1 × MIC, 6 h): 0.71 log10 CFU/mL; Log10 Difference in CFU/mL from Inoculum (VRE 368; 1 × MIC, 8 h): 1.25 log10 CFU/mL; Log10 Difference in CFU/mL from Inoculum (VRE 368; 1 × MIC, 24 h): 1.13 log10 CFU/mL; Log10 Difference in CFU/mL from Inoculum (VRE 368; 2 × MIC, 4 h): 0.28 log10 CFU/mL; Log10 Difference in CFU/mL from Inoculum (VRE 368; 2 × MIC, 6 h): 0.54 log10 CFU/mL; Log10 Difference in CFU/mL from Inoculum (VRE 368; 2 × MIC, 8 h): −0.37 log10 CFU/mL; Log10 Difference in CFU/mL from Inoculum (VRE 368; 2 × MIC, 24 h): 0.66 log10 CFU/mL; Log10 Difference in CFU/mL from Inoculum (VRE 368; 4 × MIC, 4 h): −0.32 log10 CFU/mL; Log10 Difference in CFU/mL from Inoculum (VRE 368; 4 × MIC, 6 h): 0.05 log10 CFU/mL; Log10 Difference in CFU/mL from Inoculum (VRE 368; 4 × MIC, 8 h): 0.22 log10 CFU/mL; Log10 Difference in CFU/mL from Inoculum (VRE 368; 4 × MIC, 24 h): 0.37 log10 CFU/mL; MIC (E. faecalis ATCC 29212 [4]): 8 µg/mL and 15 µM
